Results: patent US9290478B2, “Substituted quinoxalines as FGFR kinase inhibitors” (ASTEX THERAPEUTICS LTD, priority 2010, dated 2016)

Tests used:
[1] = test system: Ba/F3-FGFR1-transfected cells; assay: Ba/F3-FGFR1 (minus IL3 or plus IL3) cellular proliferation assay; type: cell-based; settings: plus 10 ng/ml murine IL3 (counterscreen); for IC50: 24 h, read-out: BAF3-FGFR1 (PLUS IL3) pIC50 (converted)
Description: (§1) Ba/F3-FGFR1 (Minus IL3 or Plus IL3) (Cellular Proliferation Assay)
(§2) In a 384 well plate, 100 nl of compound dilution in DMSO was sprayed before adding 50 μl cell culture medium (phenol red free RPMI-1640, 10% FBS, 2 mM L-Glutamine and 50 μg/ml Gentamycin) containing 20000 cells per well of Ba/F3-FGFR1-transfected cells. Cells were put in an incubator at 37° C. and 5% CO2. After 24 hours, 10 μl of Alamar Blue solution (0.5 mM K3Fe(CN)6, 0.5 mM K4Fe(CN)6, 0.15 mM Resazurin and 100 mM Phosphate Buffer) was added to the wells, incubated for 4 hours at 37° C. and 5% CO2 before RFU's (Relative Fluorescence Units) (ex. 540 nm., em. 590 nm.) were measured in a fluororescence plate reader.
(§3) In this assay, the inhibitory effect of different compound concentrations (range 10 μM to 0.1 nM) was determined and used to calculate an IC50 (M) and pIC50 (−log IC50) value.
(§4) As a counterscreen the same experiment was performed in the presence of 10 ng/ml murine IL3.

[2] = target: T1, Ba/F3-FGFR1-transfected cells (Homo sapiens, UniProt P11362); assay: as above; type: cell-based; settings: minus IL3
T1 construct: BAF3-FGFR1 (MIN IL3) pIC50; other: minus IL3
T1 sequence (P11362 whole entry, change not shown): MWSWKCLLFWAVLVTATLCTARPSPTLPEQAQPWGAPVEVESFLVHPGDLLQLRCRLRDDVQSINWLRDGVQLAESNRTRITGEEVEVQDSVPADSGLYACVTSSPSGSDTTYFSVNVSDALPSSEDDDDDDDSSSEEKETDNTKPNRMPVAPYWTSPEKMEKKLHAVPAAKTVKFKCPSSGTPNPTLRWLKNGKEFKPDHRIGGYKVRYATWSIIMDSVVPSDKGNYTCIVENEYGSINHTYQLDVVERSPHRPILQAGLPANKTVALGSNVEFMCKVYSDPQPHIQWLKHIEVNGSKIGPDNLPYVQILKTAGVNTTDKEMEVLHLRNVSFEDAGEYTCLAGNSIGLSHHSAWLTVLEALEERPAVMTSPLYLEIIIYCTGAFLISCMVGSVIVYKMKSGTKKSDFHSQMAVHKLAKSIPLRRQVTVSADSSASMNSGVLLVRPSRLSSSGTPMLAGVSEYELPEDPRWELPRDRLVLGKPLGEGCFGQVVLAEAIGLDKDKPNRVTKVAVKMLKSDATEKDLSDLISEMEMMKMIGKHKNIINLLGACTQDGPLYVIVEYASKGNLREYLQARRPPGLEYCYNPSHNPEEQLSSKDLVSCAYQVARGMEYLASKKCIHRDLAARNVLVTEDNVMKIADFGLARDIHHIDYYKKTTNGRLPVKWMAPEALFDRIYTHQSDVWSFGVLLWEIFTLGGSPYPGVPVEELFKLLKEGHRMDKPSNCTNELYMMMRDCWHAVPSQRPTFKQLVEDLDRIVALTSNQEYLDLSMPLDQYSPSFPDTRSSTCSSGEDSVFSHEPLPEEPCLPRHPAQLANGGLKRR
Description: as §1, §2, §3, §4

FGFR1 (h) = FGFR1 (h) (Homo sapiens, UniProt P11362); assay: FGFR1 (enzymatic assay), TR-FRET; type: biochemical; settings: 5 μM ATP; read-out: FGFR1 pIC50 (converted)
FGFR1 (h), sequence (P11362 22-822): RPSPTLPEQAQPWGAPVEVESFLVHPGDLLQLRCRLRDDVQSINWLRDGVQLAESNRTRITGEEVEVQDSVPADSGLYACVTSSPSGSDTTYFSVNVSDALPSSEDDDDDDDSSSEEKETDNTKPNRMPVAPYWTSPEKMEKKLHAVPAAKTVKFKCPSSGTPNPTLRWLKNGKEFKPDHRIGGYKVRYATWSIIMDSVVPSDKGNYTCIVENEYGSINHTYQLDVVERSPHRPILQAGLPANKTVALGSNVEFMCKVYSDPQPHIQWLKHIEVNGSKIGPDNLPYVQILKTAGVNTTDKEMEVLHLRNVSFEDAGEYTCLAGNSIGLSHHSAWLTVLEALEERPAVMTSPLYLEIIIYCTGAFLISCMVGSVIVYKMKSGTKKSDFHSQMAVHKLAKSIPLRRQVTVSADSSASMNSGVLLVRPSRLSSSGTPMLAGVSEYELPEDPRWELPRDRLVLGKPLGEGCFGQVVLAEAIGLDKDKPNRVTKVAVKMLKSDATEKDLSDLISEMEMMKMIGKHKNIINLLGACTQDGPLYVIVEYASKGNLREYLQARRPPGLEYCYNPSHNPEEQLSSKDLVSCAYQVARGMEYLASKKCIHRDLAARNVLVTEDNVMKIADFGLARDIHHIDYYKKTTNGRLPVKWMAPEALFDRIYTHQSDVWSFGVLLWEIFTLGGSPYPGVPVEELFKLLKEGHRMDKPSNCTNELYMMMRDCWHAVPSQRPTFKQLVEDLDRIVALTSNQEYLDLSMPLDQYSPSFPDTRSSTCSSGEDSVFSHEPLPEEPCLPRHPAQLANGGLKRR
Description: (§5) In a final reaction volume of 30 μL, FGFR1 (h) (25 ng/ml) was incubated with 50 mM HEPES pH 7.5, 6 mM MnCl2, 1 mM DTT, 0.1 mM Na3VO4, 0.01% Triton-X-100, 500 nM Btn-Flt3 and 5 μM ATP in the presence of compound (1% DMSO final). After incubation for 60 minutes at room temperature the reaction was stopped with 2.27 nM EU-anti P-Tyr, 7 mM EDTA, 31.25 nM SA-XL-665 and 0.02% BSA which was present for 60 minutes at room temperature. Time-Resolved Fluorescence Resonance Energy Transfer (TR-FRET) signal (ex340 nm. Em 620 nm, em 655 nm) was measured afterwards and results are expressed in RFU (Relative Fluorescence Units). In this assay, the inhibitory effect of different compound concentrations (range 10 μM to 0.1 nM) was determined and used to calculate an IC50 (M) and pIC50 (−log IC50) value.

[3] = target: T2, Ba/F3-FGFR3-transfected cells (Homo sapiens, UniProt P22607); assay: Ba/F3-FGFR3 (minus IL3 or plus IL3) cellular proliferation assay; type: cell-based; settings: minus IL3
T2 construct: BAF3-FGFR3 (MIN IL3) pIC50; other: minus IL3
T2 sequence (P22607 whole entry, change not shown): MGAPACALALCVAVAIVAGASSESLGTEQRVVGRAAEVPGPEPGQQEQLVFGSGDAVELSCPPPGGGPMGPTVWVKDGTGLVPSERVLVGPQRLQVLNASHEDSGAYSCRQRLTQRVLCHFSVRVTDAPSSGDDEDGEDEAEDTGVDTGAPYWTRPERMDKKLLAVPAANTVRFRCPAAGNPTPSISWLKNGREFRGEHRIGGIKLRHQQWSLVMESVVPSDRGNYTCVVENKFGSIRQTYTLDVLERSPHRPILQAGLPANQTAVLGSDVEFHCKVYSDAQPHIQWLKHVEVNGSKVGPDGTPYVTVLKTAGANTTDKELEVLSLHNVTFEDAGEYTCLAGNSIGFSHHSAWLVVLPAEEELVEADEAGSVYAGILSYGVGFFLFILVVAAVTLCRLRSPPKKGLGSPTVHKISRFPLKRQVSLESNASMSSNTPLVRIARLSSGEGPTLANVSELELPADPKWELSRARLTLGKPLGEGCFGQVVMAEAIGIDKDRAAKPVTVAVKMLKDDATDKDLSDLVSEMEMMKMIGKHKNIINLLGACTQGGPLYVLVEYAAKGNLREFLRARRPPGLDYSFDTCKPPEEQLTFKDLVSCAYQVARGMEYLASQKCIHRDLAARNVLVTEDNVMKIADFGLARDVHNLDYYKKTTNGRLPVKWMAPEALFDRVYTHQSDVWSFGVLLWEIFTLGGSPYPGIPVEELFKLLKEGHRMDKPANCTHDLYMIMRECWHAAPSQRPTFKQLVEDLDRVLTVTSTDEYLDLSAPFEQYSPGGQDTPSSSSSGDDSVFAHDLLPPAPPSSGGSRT
Description: (§6) Ba/F3-FGFR3 (Minus IL3 or Plus IL3) (Cellular Proliferation Assay)
as §2, with “nI” for “nl”, “Ba/F3-FGFR3-transfected” for “Ba/F3-FGFR1-transfected”
(§7) In this assay, the inhibitory effect of different compound concentrations (range 10 μM to 0.1 nM) was determined and used to calculate an IC50 (M) and pIC50 (−log IC50) value. As a counterscreen the same experiment was performed in the presence of 10 ng/ml murine IL3.

[4] = test system: Ba/F3-FGFR3-transfected cells; assay: as above; type: cell-based; settings: plus 10 ng/ml murine IL3 (counterscreen); for IC50: 24 h, read-out: BAF3-FGFR3 (PLUS IL3) pIC50 (converted)
Description: as §6
as §2, with “nI” for “nl”, “Ba/F3-FGFR3-transfected” for “Ba/F3-FGFR1-transfected”
as §7

[5] = test system: Ba/F3-KDR-transfected cells; assay: Ba/F3-KDR (minus IL3 or plus IL3) cellular proliferation assay; type: cell-based; settings: plus 10 ng/ml murine IL3 (counterscreen); for IC50: 24 h, read-out: BAF3-KDR (PLUS IL3) pIC50 (converted)
Description: (§8) Ba/F3-KDR (Minus IL3 or Plus IL3) (Cellular Proliferation Assay)
as §2, with “nI” for “nl”, “Ba/F3-KDR-transfected” for “Ba/F3-FGFR1-transfected”
as §7

[6] = target: T3, Ba/F3-KDR-transfected cells (Homo sapiens, UniProt P35968); assay: as above; type: cell-based; settings: minus IL3
T3 construct: BAF3-KDR (MIN IL3) pIC50; other: minus IL3
T3 sequence (P35968 whole entry, change not shown): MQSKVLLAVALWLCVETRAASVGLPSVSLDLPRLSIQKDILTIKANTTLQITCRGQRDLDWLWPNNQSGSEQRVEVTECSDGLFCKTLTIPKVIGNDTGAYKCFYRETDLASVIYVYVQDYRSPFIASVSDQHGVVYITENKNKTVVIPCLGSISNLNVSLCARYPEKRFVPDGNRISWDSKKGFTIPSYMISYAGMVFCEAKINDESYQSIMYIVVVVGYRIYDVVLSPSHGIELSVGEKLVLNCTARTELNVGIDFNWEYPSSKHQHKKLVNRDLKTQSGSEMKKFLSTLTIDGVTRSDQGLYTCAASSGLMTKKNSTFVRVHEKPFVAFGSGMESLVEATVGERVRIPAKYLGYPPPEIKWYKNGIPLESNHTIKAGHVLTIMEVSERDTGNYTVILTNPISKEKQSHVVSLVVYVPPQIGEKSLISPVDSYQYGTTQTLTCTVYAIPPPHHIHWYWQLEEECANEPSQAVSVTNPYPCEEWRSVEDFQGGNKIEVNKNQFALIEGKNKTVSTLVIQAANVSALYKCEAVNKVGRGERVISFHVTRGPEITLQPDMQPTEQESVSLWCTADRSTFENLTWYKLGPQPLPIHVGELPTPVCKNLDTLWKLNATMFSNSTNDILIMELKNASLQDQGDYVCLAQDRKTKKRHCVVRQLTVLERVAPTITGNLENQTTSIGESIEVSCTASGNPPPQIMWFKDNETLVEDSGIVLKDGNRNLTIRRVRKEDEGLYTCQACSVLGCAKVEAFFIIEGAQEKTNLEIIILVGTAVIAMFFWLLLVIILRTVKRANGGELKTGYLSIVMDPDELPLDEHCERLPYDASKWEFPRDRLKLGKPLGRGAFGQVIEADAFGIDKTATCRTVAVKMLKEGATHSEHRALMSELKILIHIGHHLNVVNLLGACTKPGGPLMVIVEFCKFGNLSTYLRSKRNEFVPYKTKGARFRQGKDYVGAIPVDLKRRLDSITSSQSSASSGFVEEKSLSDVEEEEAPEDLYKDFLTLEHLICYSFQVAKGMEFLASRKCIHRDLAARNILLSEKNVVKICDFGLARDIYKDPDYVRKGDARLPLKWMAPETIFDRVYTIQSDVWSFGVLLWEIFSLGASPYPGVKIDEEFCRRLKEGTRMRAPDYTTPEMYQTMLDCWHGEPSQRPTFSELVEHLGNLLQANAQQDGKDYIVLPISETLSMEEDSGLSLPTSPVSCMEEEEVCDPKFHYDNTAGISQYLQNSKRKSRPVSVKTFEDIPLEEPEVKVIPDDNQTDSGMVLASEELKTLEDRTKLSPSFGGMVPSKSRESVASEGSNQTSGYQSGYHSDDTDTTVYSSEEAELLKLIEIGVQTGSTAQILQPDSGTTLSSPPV
Description: as §8
as §2, with “nI” for “nl”, “Ba/F3-KDR-transfected” for “Ba/F3-FGFR1-transfected”
as §7

FGFR4 (h) = FGFR4 (h) (Homo sapiens, UniProt P22455); assay: FGFR4 (enzymatic assay), TR-FRET; type: biochemical; settings: 5 μM ATP; for IC50: read-out: FGFR4 pIC50 (converted)
FGFR4 (h), sequence (P22455 22-802): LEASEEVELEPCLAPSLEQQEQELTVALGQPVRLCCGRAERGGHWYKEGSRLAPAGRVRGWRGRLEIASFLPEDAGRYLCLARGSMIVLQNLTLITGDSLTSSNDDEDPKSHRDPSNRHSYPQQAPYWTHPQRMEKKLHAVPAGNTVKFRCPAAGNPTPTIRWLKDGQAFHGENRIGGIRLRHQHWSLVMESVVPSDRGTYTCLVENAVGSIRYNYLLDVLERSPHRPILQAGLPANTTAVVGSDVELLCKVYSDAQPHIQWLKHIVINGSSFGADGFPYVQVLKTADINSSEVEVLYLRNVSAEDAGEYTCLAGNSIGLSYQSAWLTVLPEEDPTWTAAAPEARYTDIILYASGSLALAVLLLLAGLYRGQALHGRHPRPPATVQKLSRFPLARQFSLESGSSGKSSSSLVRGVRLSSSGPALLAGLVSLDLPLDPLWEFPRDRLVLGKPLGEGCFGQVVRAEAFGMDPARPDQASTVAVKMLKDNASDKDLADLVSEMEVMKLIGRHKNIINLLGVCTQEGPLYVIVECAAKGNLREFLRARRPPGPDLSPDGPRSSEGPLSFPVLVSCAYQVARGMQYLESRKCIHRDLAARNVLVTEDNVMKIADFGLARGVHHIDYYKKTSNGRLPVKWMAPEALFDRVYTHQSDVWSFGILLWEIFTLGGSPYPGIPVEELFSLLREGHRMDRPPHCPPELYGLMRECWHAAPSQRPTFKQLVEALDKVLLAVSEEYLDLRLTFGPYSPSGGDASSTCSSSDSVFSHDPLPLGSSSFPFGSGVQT
Description: as §5, with “FGFR4” for “FGFR1”, “(60” for “(25”

Row | SMILES | IC50 [1] [nM] | BAF3-FGFR1 (MIN IL3) pIC50 [2] | IC50 (FGFR1 (h)) [nM] | BAF3-FGFR3 (MIN IL3) pIC50 [3] | IC50 [4] [nM] | IC50 [5] [nM] | BAF3-KDR (MIN IL3) pIC50 [6] | IC50 (FGFR4 (h)) [nM] | BAF3-FGFR1 (PLUS IL3) pIC50 [1] | BAF3-FGFR3 (PLUS IL3) pIC50 [4] | BAF3-KDR (PLUS IL3) pIC50 [5] | FGFR4 pIC50 (FGFR4 (h))
1 | COc1cc(OC)cc(C(O)(CNCCNC(C)C)c2ccc3ncc(-c4cnn(C)c4)nc3c2)c1 (single isomer, unassigned) [Compound 5] | > 10000 | <5 | 603 | <5 | > 10000 | > 10000 | <5 | > 1000 |  |  |  | 
2 | COc1cc(OC)cc(C(O)(CNCCNC(C)C)c2ccc3ncc(-c4cnn(C)c4)nc3c2)c1 (single isomer, unassigned) [Compound 6] |  | <5 | 955 | <5 |  |  | <5 |  |  |  |  | 
3 | COc1cc(OC)cc(C(CCNC(C)C)c2ccc3ncc(-c4cnn(C)c4)nc3c2)c1 (single isomer, unassigned) [Compound 19a] | > 10000 | 6.93 | 7.59 | 6.67 | > 10000 | > 10000 | <5 | 145 |  |  |  | 
4 | COc1cc(OC)cc(C(NCCNC(C)C)c2ccc3ncc(-c4cnn(C)c4)nc3c2)c1.Cl (single isomer, unassigned) [Compound 24] | > 10000 | 5.16 | 182 | 5.29 | > 10000 | > 10000 | <5 | > 1000 |  |  |  | 
5 | COc1cc(OC)cc(C(CCNC(C)C)c2ccc3ncc(-c4cnn(C)c4)nc3c2)c1 (single isomer, unassigned) [Compound 32a] |  | 5.14 | 661 | ~5.03 |  |  | <5 | 5500 | <5 | <5 | <5 | 
6 | CNCC(O)(c1cc(OC)cc(OC)c1)c1ccc2ncc(-c3cnn(C)c3)nc2c1.Cl (single isomer, unassigned) [Compound 37] | > 10000 | <5 | ~891 | <5 | > 10000 | > 10000 | <5 | > 1000 |  |  |  | 
7 | CNCC(O)(c1cc(OC)cc(OC)c1)c1ccc2ncc(-c3cnn(C)c3)nc2c1.Cl (single isomer, unassigned) [Compound 38] |  | <5 | 776 | <5 |  |  | <5 |  | <5 | <5 | <5 | <6
8 | COc1cc(OC)cc(C(NCCNC(C)C)c2ccc3ncc(-c4cnn(C)c4)nc3c2)c1.Cl (single isomer, unassigned) [Compound 39] |  | <5 | > 1000 | <5 |  |  | <5 |  | <5 | <5 | <5 | <6
9 | COc1cc(OC)cc(C(=O)c2ccc3ncc(-c4cnn(C)c4)nc3c2)c1 [Compound 2] | > 10000 | 5.58 | 117 | 5.17 | > 10000 | > 10000 | <5 | ~10000 |  |  |  | 
10 | COc1cc(OC)cc(/C(=C/C#N)c2ccc3ncc(-c4cnn(C)c4)nc3c2)c1 [Compound 3] | > 10000 | <5 | 2290 | 5.29 | > 10000 | > 10000 | <5 | > 10000 |  |  |  | 
11 | COc1cc(OC)cc(/C(=C\C#N)c2ccc3ncc(-c4cnn(C)c4)nc3c2)c1 [Compound 4] | > 10000 | 5.3 | 53.7 | 5.76 | > 10000 | > 10000 | <5 | 363 |  |  |  | 
12 | COc1cc(OC)cc(C(CCN2CCCC2=O)c2ccc3ncc(-c4cnn(C)c4)nc3c2)c1.Cl (centres unmarked) [Compound 7] | > 10000 | 5.52 | 56.2 | 5.8 | > 10000 | > 10000 | 5.13 | 158 |  |  |  | 
